Results: US11420973B2, “Amide substituted indole compounds useful as TLR inhibitors” (BRISTOL-MYERS SQUIBB COMPANY, priority 2017, dated 2022)
Counter-ions that a name gives are not always drawn. Like-named read-outs stand apart in the source and are kept apart here.

Legend:
[1] = target: human TLR9 (Homo sapiens (Human), UniProt Q9NR96); assay: TLR9 inhibition reporter assay (HEK-Blue SEAP reporter, ODN2006 stimulation);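 note: SEAP reporter under IFN-β minimal promoter with five NF-κB and AP-1 sites, 22 h incubation, compounds 0.05 nM–50 µM, inhibition relative to agonist plus DMSO versus known inhibitor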
[2] = target: human TLR7 (Homo sapiens (Human), UniProt Q9NYK1); assay: TLR7 inhibition reporter assay (HEK-Blue SEAP reporter, gardiquimod stimulation); type: cell-based; settings: HEK-Blue cells overexpressing human TLR7, gardiquimod 7.5 μM
[3] = target: human TLR8 (Homo sapiens (Human), UniProt Q9NR97); assay: TLR8 inhibition reporter assay (HEK-Blue SEAP reporter, R848 stimulation);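 note: SEAP driven by IFN-β minimal promoter with NF-κB and AP-1 sites, 22 h incubation, compounds 0.05 nM–50 µM, inhibition scaled between agonist plus DMSO and reference inhibitor wells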
[4] = read-out: TLR9 IC50, HEK-Blue cells overexpressing human TLR9, ODN2006 5 nM, SEAP reporter
[5] = read-out: TLR8 IC50, HEK-Blue cells overexpressing human TLR8, R848 15.9 μM, SEAP reporter

Chain of human TLR7 (Q9NYK1 27-1049): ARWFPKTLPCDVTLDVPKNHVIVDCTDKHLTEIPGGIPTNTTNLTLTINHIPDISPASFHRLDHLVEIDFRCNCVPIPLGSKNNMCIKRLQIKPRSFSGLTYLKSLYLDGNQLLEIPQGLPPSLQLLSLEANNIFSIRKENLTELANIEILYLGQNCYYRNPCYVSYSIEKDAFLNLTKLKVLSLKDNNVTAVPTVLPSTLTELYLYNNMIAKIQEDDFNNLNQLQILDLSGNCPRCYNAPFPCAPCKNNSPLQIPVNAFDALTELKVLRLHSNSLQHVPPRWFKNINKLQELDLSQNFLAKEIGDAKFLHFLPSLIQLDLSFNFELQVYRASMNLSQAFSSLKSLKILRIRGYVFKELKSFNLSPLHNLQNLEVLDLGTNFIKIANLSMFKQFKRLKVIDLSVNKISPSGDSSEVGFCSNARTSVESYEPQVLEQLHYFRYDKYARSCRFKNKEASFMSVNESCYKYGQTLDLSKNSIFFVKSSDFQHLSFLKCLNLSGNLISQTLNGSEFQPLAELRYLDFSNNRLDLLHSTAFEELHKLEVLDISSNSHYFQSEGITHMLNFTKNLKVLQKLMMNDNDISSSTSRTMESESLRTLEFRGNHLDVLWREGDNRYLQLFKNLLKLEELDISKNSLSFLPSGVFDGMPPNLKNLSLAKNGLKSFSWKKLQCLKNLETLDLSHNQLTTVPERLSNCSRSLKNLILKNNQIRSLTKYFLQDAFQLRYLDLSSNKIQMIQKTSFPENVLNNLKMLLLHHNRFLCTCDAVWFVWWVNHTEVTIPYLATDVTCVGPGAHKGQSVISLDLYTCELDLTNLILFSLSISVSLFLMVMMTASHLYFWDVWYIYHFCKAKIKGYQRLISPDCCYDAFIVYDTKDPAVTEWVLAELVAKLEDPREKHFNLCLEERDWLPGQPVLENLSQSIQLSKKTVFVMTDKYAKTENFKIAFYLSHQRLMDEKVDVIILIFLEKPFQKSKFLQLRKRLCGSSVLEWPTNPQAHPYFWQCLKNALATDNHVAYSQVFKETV
Chain of human TLR8 (Q9NR97 27-1041): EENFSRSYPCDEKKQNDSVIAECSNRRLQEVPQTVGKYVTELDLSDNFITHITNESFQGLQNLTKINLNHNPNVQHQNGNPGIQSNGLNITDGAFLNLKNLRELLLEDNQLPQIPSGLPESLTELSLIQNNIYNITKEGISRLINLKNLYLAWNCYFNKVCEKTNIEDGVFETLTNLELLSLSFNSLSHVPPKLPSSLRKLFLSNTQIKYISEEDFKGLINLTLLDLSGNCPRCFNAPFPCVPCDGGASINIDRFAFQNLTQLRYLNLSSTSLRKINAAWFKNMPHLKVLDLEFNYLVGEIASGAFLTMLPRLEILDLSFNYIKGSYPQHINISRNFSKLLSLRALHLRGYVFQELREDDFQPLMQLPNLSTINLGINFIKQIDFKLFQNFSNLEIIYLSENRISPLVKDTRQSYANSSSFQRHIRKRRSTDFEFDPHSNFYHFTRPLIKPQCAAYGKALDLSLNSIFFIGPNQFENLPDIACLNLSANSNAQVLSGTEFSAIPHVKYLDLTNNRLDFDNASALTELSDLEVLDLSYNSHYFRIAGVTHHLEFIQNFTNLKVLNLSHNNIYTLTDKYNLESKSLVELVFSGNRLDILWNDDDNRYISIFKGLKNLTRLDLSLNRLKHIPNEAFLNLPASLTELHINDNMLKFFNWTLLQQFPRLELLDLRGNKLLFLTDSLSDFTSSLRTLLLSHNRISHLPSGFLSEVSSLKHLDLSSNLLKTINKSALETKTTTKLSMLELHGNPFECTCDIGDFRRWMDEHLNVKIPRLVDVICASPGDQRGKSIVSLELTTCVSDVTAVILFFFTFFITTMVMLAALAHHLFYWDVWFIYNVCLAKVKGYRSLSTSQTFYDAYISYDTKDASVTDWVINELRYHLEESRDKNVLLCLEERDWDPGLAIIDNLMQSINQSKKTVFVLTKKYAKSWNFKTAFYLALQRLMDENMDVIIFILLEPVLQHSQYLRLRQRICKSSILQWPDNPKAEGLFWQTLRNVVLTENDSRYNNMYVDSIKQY
Chain of human TLR9 (Q9NR96 26-1032): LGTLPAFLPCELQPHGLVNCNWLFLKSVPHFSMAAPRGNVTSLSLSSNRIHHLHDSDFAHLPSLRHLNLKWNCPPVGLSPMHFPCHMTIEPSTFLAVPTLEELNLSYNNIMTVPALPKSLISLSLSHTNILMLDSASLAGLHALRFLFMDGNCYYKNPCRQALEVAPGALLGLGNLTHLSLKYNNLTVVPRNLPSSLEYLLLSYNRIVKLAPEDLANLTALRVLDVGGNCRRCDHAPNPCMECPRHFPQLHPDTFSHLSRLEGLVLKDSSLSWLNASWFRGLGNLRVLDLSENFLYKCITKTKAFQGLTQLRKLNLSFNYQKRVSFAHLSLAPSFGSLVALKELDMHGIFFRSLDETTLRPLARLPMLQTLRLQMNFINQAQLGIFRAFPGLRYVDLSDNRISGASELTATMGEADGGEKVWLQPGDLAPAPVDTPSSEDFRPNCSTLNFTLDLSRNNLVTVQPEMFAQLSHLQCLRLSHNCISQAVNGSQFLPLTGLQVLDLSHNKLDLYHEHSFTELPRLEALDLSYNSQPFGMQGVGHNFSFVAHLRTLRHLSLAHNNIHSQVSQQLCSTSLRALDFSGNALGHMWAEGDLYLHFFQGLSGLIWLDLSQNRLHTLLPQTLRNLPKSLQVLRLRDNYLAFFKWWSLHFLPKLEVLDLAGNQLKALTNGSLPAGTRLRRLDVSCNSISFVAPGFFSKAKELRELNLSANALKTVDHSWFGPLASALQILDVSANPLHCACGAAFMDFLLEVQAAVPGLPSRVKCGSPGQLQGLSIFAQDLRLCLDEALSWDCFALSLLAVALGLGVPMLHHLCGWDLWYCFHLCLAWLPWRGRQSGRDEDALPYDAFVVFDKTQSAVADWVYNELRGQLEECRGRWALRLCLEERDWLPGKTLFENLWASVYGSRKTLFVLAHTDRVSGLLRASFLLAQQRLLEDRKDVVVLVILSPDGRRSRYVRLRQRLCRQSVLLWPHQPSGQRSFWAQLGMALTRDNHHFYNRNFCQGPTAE

SMILES | IC50 [1, 4] | IC50 [2] | IC50 [3, 5] | IC50 [1] | IC50 [3]
CCc1c(-c2ccc(OC)c(OC)c2)[nH]c2ccc(C(=O)N3CC4CN(C(C)C)CC4C3)cc12 (stereo not drawn) [Example 81, (2-(3,4-dimethoxyphenyl)-3-ethyl-1H-indol-5-yl)(5-isopropylhexahydropyrrolo[3,4-c]pyrrol-2(1H)-yl)methanone] | 1920 nM | 418 nM | 87 nM |  | 
CCc1c(-c2ccnc(C)c2)[nH]c2ccc(C(=O)N(CC)CCN(C)C)cc12 [Example 84, N-(2-(dimethylamino)ethyl)-N,3-diethyl-2-(2-methylpyridin-4-yl)-1H-indole-5-carboxamide] | 2520 nM | 49 nM | 2.1 nM |  | 
CC(C)c1c(-c2ccnc(N)c2)[nH]c2ccc(C(=O)NC3CCC(N(C)C)CC3)cc12 (stereo not drawn) [Example 87, 2-(2-aminopyridin-4-yl)-N-(4-(dimethylamino)cyclohexyl)-3-isopropyl-1H-indole-5-carboxamide] | 438 nM | 1050 nM | 27 nM |  | 
COc1ccc(-c2[nH]c3ccc(C(=O)N4CC5CN(C(=O)CN(C)C)CC5C4)cc3c2CC(F)(F)F)cc1OC (stereo not drawn) [Example 89, 1-(5-(2-(3,4-dimethoxyphenyl)-3-(2,2,2-trifluoroethyl)-1H-indole-5-carbonyl)hexahydropyrrolo[3,4-c]pyrrol-2(1H)-yl)-2-(dimethylamino)ethan-1-one] | 5860 nM | 914 nM | 217 nM |  | 
COc1ccc(-c2[nH]c3ccc(C(=O)N4CC5CN(CC(=O)N(C)C)CC5C4)cc3c2CC(F)(F)F)cc1OC (stereo not drawn) [Example 90, 2-(5-(2-(3,4-dimethoxyphenyl)-3-(2,2,2-trifluoroethyl)-1H-indole-5-carbonyl)hexahydropyrrolo[3,4-c]pyrrol-2(1H)-yl)-N,N-dimethylacetamide] | 4050 nM | 866 nM | 344 nM |  | 
Cc1cc(-c2[nH]c3ccc(C(=O)N4CCCN(C)CC4)cc3c2C(C)C)cc(C)n1 [Example 92, (2-(2,6-dimethylpyridin-4-yl)-3-isopropyl-1H-indol-5-yl)(4-methyl-1,4-diazepan-1-yl)methanone] | 2470 nM | 32 nM | 3.2 nM |  | 
CCN(CCN(C)C)C(=O)c1ccc2[nH]c(-c3cc(C)nc(C)c3)c(C(C)C)c2c1 [Example 93, N-(2-(dimethylamino)ethyl)-2-(2,6-dimethylpyridin-4-yl)-N-ethyl-3-isopropyl-1H-indole-5-carboxamide] | 594 nM | 2.9 nM | 1.4 nM |  | 
Cc1cc(-c2[nH]c3ccc(C(=O)N(C)C)cc3c2C(C)C)cc(C)n1 [Example 94, 2-(2,6-dimethylpyridin-4-yl)-3-isopropyl-N,N-dimethyl-1H-indole-5-carboxamide] | > 50000 nM | 18 nM | 23 nM |  | 
Cc1cc(-c2[nH]c3ccc(C(=O)NCCCN(C)C)cc3c2C(C)C)cc(C)n1 [Example 95, N-(3-(dimethylamino)propyl)-2-(2,6-dimethylpyridin-4-yl)-3-isopropyl-1H-indole-5-carboxamide] | 516 nM | 50 nM | 3.6 nM |  | 
Cc1cc(-c2[nH]c3ccc(C(=O)NCCN(C)C)cc3c2C(C)C)cc(C)n1 [Example 96, N-(2-(dimethylamino)ethyl)-2-(2,6-dimethylpyridin-4-yl)-3-isopropyl-1H-indole-5-carboxamide] | 1500 nM | 75 nM | 7.3 nM |  | 
CNC(=O)c1ccc2[nH]c(-c3cc(C)nc(C)c3)c(C(C)C)c2c1 [Example 97, 2-(2,6-dimethylpyridin-4-1)-3-isopropyl-N-methyl-1H-indole-5-carboxamide] | > 50000 nM | 45 nM | 30 nM |  | 
Cc1cc(-c2[nH]c3ccc(C(=O)N(C)Cc4ccccc4)cc3c2C(C)C)cc(C)n1 [Example 99, N-benzyl-2-(2,6-dimethylpyridin-4-yl)-3-isopropyl-N-methyl-1H-indole-5-carboxamide] | 1830 nM | 201 nM | 481 nM |  | 
Cc1cc(-c2[nH]c3ccc(C(=O)N(C)Cc4cccnc4)cc3c2C(C)C)cc(C)n1 [Example 100, 2-(2,6-dimethylpyridin-4-yl)-3-isopropyl-N-methyl-N-(pyridin-3-ylmethyl)-1H-indole-5-carboxamide] | > 50000 nM | 46 nM | 320 nM |  | 
Cc1cc(-c2[nH]c3ccc(C(=O)N(C)C4CCN(C)CC4)cc3c2C(C)C)cc(C)n1 [Example 101, 2-(2,6-dimethylpyridin-4-yl)-3-isopropyl-N-methyl-N-(1-methylpiperidin-4-yl)-1H-indole-5-carboxamide] | 776 nM | 1.9 nM | 0.34 nM |  | 
Cc1cc(-c2[nH]c3ccc(C(=O)N4CCC(N(C)C)CC4)cc3c2C(C)C)cc(C)n1 [Example 104, (4-(dimethylamino)piperidin-1-yl)(2-(2,6-dimethylpyridin-4-yl)-3-isopropyl-1H-indol-5-yl)methanone] | 373 nM | 14 nM | 12 nM |  | 
Cc1cc(-c2[nH]c3ccc(C(=O)N4CC5CNCC5C4)cc3c2C(C)C)cc(C)n1 (stereo not drawn) [Example 107, (2-(2,6-dimethylpyridin-4-yl)-3-isopropyl-1H-indol-5-yl)(hexahydropyrrolo[3,4-c]pyrrol-2(1H)-yl)methanone, 2 HCl] |  | 73 nM |  | 264 nM | 58 nM
Cc1cc(-c2[nH]c3ccc(C(=O)N4CCNCC4)cc3c2C(C)C)cc(C)n1 [Example 108, (2-(2,6-dimethylpyridin-4-yl)-3-isopropyl-1H-indol-5-yl)(piperazin-1-yl)methanone] | 247 nM | 7.3 nM | 1.5 nM |  | 
Cc1cc(-c2[nH]c3ccc(C(=O)N4CC5CN(C)CC5C4)cc3c2C(C)C)cc(C)n1 (stereo not drawn) [Example 109, (2-(2,6-dimethylpyridin-4-yl)-3-isopropyl-1H-indol-5-yl)(5-methylhexahydropyrrolo[3,4-c]pyrrol-2(1H)-yl)methanone] | 116 nM | 18 nM | 2.3 nM |  | 

The remaining compounds from weak to strong by IC50 [2], led by results:

IC50 [1, 4] | IC50 [2] | IC50 [3, 5] | IC50 [1] | IC50 [3] | SMILES
386 nM | 776 nM | 160 nM |  |  | CCc1c(-c2ccnc(C)c2)[nH]c2ccc(C(=O)N3CC4CNCC4C3)cc12 (stereo not drawn) [Example 85, (3-ethyl-2-(2-methylpyridin-4-yl)-1H-indol-5-yl)(hexahydropyrrolo[3,4-c]pyrrol-2(1H)-yl)methanone]
21900 nM | 515 nM | 446 nM |  |  | CCc1c(-c2ccc(OC)c(OC)c2)[nH]c2ccc(C(=O)N3CC4CN(CC(=O)NC)CC4C3)cc12 (stereo not drawn) [Example 82, 2-(5-(2-(3,4-dimethoxyphenyl)-3-ethyl-1H-indole-5-carbonyl)hexahydropyrrolo[3,4-c]pyrrol-2(1H)-yl)-N-methylacetamide]
1570 nM | 469 nM | 28 nM |  |  | CCc1c(-c2ccnc(C)c2)[nH]c2ccc(C(=O)N3CC4CN(C(C)C)CC4C3)cc12 (stereo not drawn) [Example 86, (3-ethyl-2-(2-methylpyridin-4-yl)-1H-indol-5-yl)(5-isopropylhexahydropyrrolo[3,4c]pyrrol-2(1H)-yl)methanone]
 | 401 nM |  | 593 nM | 278 nM | COc1ccc(-c2[nH]c3ccc(C(=O)N4CC5CNCC5C4)cc3c2CC(F)(F)F)cc1OC (stereo not drawn) [Example 88, (2-(3,4-dimethoxyphenyl)-3-(2,2,2-trifluoroethyl)-1H-indol-5-yl)(hexahydropyrrolo[3,4-c]pyrrol-2(1H)-yl)methanone hydrochloride]
5060 nM | 185 nM | 418 nM |  |  | Cc1cc(-c2[nH]c3ccc(C(=O)N(C)CCc4ccccc4)cc3c2C(C)C)cc(C)n1 [Example 102, 2-(2,6-dimethylpyridin-4-yl)-3-isopropyl-N-methyl-N-phenethyl-1H-indole-5-carboxamide]
> 50000 nM | 82 nM | 45 nM |  |  | Cc1cc(-c2[nH]c3ccc(C(=O)N4CCN(Cc5ncn(C)n5)CC4)cc3c2C(C)C)cc(C)n1 [Example 98, (2-(2,6-dimethylpyridin-4-yl)-3-isopropyl-1H-indol-5-yl)(4-((1-methyl-1H-1,2,4-triazol-3-yl)methyl)piperazin-1-yl)methanone]
27100 nM | 54 nM | 192 nM |  |  | Cc1cc(-c2[nH]c3ccc(C(=O)N(C)Cc4cccc(N)c4)cc3c2C(C)C)cc(C)n1 [Example 103, N-(3-aminobenzyl)-2-(2,6-dimethylpyridin-4-yl)-3-isopropyl-N-methyl-1H-indole-5-carboxamide]
> 50000 nM | 51 nM | 105 nM |  |  | COCCN(C)C(=O)c1ccc2[nH]c(-c3cc(C)nc(C)c3)c(C(C)C)c2c1 [Example 106, 2-(2,6-dimethylpyridin-4-yl)-3-isopropyl-N-(2-methoxyethyl)-N-methyl-1H-indole-5-carboxamide]
20800 nM | 33 nM | 59 nM |  |  | Cc1cc(-c2[nH]c3ccc(C(=O)N(C)CCO)cc3c2C(C)C)cc(C)n1 [Example 105, 2-(2,6-dimethylpyridin-4-yl)-N-(2-hydroxyethyl)-3-isopropyl-N-methyl-1H-indole-5-carboxamide]
2350 nM | 16 nM | 0.5 nM |  |  | CCc1c(-c2ccnc3[nH]ccc23)[nH]c2ccc(C(=O)N(CC)CCN(C)C)cc12 [Example 83, N-(2-(dimethylamino)ethyl)-N,3-diethyl-2-(1H-pyrrolo[2,3-b]pyridin-4-yl)-1H-indole-5-carboxamide]
670 nM | 9.2 nM | 2.1 nM |  |  | Cc1cc(-c2[nH]c3ccc(C(=O)NC4CCN(C(C)C)CC4)cc3c2C(C)C)cc(C)n1 [Example 91, 2-(2,6-dimethylpyridin-4-yl)-3-isopropyl-N-(1-isopropylpiperidin-4-yl)-1H-indole-5-carboxamide]
